In patent EP4786465A1, “NOVEL COMPOUND, AND PHARMACEUTICAL COMPOSITION FOR PREVENTION OR TREATMENT OF CANCER OR TUMORS COMPRISING SAME” (Daewoong Pharmaceutical Co., Ltd., priority 2023, dated 2025):

Key:
Assay type in all cases: cell-based
[1] = system: transcription factor TEAD; test: Activity inhibition test of transcription factor TEAD (ONE-Glo Luciferase assay, Hippo Pathway TEAD reporter-MCF7 recombinant cell line); details: Homo sapiens; TEAD Reporter-MCF7 cells, 24 hours treatment, luciferase luminescence
Description: The transcription factor TEAD activity of the compounds prepared in the Examples was measured by the ONE-Glo™ Luciferase assay (Promega, Catalog #E6110) method using the Hippo Pathway TEAD reporter-MCF7 recombinant cell line (BPS Bioscience, Catalog #60618). Specifically, the TEAD Reporter-MCF7 cell line contains the firefly luciferase gene whose expression is regulated under the control of TEAD response elements in the MCF7, which is a human breast cancer cell line. In the cell line, a non-phosphorylated YAP/TAZ exists in the nucleus in a non-stressed condition, which continuously induces expression of the luciferase reporter. TEAD Reporter-MCF7 cells were prepared in 100 µL of cell culture medium (MEM medium, 10% FBS, 1% P/S, 400 µg/mL Geneticin, 1% […], 1 mM NA pyruvate, 10 µg/mL Insulin) in a white clear bottom 96-well microplate. The prepared plate was incubated in a 5% CO2 incubator at 37°C for 24 hours, and then the previously prepared compounds of Examples were finally treated at concentrations of 0.0005, 0.005, 0.05, 0.5 and 5 µM, which were repeated three times for all treatment solutions. The plates treated with the compounds of Examples were incubated in a 5% CO2 incubator at 37°C for 24 hours. 100 µL/well of the substrate aqueous solution containing luciferin was added to a white clear-bottom 96 well microplate, thereby initiating an enzyme reaction. The reaction was performed at room temperature for 5 minutes, and the luminescence (integration time 1000 ms) was measured using a Flexstation3 multi-mode microplate reader. In accordance with the instructions for the ONE-Glo™ Luciferase Assay, the luciferase enzyme activity, which represents the activity of the transcription factor TEAD, was measured by a chemiluminescence method, and the inhibitory activity of the compound according to the present disclosure was calculated. The results of each compound were analyzed using Microsoft Excel, and the IC50 values were calculated by GraphPad Prism software.

NCI-H226 = test: Cell growth inhibition test (CellTiter-Glo Luminescent Cell Viability), NCI-H226; details: Homo sapiens; NCI-H226 cells, CellTiter-Glo; read-out: growth IC50 H226
Description: (§1) The cell growth for the compounds prepared in Examples was measured by CellTiter-Glo® Luminescednt Cell Viability (Promega, Catalog #G7571) method using NCI-H226 (addexbio), NCI-H28 (Korea Cell Line Bank) cell lines. This evaluation method is a method in which when luciferase enzyme is activated by ATP flowing out from living cells, it reacts with a luciferin substrate, and the enzyme activity at this time is measured to confirm cell viability.
(§2) Specifically, NCI-H226, and NCI-H28 cells were prepared in 100 µL of cell culture medium (RPMI medium, 10% FBS, 1% P/S, 4.5 g/L D-Glucose, 2.383 g/L HEPES Buffer, L-Glutamine, 1.5 g/L Sodium Bicarbonate, 110 mg/L Sodium pyruvate) in a white clear bottom 96-well microplate. The prepared plate was incubated in a 5% CO2 incubator at 37°C for 24 hours, and then the previously prepared compounds of Examples were finally treated at concentrations of 0.0005, 0.005, 0.05, 0.5 and 5 µM, which was repeated three times for all treatment solutions. The plates treated with the compounds of Examples were incubated in a 5% CO2 incubator at 37°C. 100 µL/well of the substrate aqueous solution containing luciferin was added to a white clear-bottom 96 well microplate, thereby initiating an enzyme reaction. The reaction was performed at room temperature in the dark for 10 minutes, and the luminescence was measured using a Flexstation3 multi-mode microplate reader. In accordance with the instructions for the CellTiter-Glo™ Luminescednt Cell Viability, the luciferase enzyme activity, which represents the amount of ATP, was measured by a chemiluminescence method, and the inhibitory activity of the compounds according to the present disclosure was calculated. The results of each compound were analyzed using Microsoft Excel, and the IC50 values were calculated using GraphPad Prism software.

NCI-H28 = test: Cell growth inhibition test (CellTiter-Glo Luminescent Cell Viability), NCI-H28; details: Homo sapiens; NCI-H28 cells, CellTiter-Glo; read-out: growth IC50 H28
Description: as §1, §2

Compound	IC50 [1] [µM]	IC50 (NCI-H226) [µM]	IC50 (NCI-H28) [µM]
C=CC(=O)N1CCc2c(ccc(Nc3cc(Cl)cc(Cl)c3)c2-c2cn(C)cn2)C1 [Example 21, 1-(6-((3,5-dichlorophenyl)amino)-5-(1-methyl-1H-imidazol-4-yl)-3,4-dihydroisoquinolin-2(1H)-yl)prop-2-en-1-one]	0.0902	0.095	> 5
C=CC(=O)N1CCc2c(ccc(Nc3ccc(C(F)(F)F)cc3)c2-c2cn(CC)cn2)C1 [Example 24, 1-(5-(1-ethyl-1H-imidazol-4-yl)-6-((4-(trifluoromethyl)phenyl)amino)-3,4-dihydroisoquinolin-2(1H)-yl)prop-2-en-1-one]	0.0154	0.08	> 5
